Laboratory results as given in US20260274867A1, “PYRIDO[4,3-D]PYRIMIDINE DERIVATIVES AS MUTANT KRAS G12C INHIBITORS FOR THE TREATMENT OF CANCER” (Frontier Medicines Corporation, priority 2023, published 2026).

These compounds were tested against T1, KRAS G12C (GMPPNP-loaded, Cys-light, amino acids 1-169) and cRAF Ras-binding domain interaction (Homo sapiens, UniProt P01116, C118S/C51S/C80L/G12C) (assay: Inhibition of KRAS G12C and cRAF binding (AlphaScreen)). Details: KRAS G12C preloaded with GMPPNP, 2 hours compound incubation, room temperature.
T1 construct: truncated version comprising amino acids 1-169
Procedure: The AlphaScreen technology was used to determine IC50s for compound inhibition of KRAS G12C (present as the Cys-light (C51S, C80L and C118S), truncated version comprising amino acids 1-169) and cRAF interaction. Compounds were diluted in 100% DMSO and each compound concentration was spotted at 200 nl/well onto low volume, white 384 well plates. The KRAS G12C contained a biotin-AviTag and the cRaf, as Ras-binding domain (amino acids 50-131, RBD), was GST-tagged. KRAS G12C was preloaded with the GTP analogue Guanosine 5′-[…] (GMPPNP). The KRAS G12C was diluted in 25 mM Hepes, pH 7.4, 150 mM NaCl, 5 mM MgCl2, 0.01% TritonX-100 and 10 μM GMPPNP and added at 10 ul/well to compound-spotted plates resulting in a DMSO concentration of 2%. Plates were incubated for 2 hours. A mixture of RBD and the AlphaScreen streptavidin donor and glutathione acceptor beads diluted in 25 mM Hepes, pH 7.4, 150 mM NaCl, 5 mM MgCl2, 0.01% TritonX-100 and 2% DMSO was then added at 10 ul/well and incubated for 60-90 minutes before the samples were read for emission at 570 nm after excitation of the donor beads at 680 nm. All incubations were performed at room temperature. The final top compound concentration was 50 μM with 1:3 titrations for 10-point dose response curves. Final assay conditions were 0.5 nM KRAS G12C, 0.75 nM RBD and 5 μg/ml each of AlphaScreen donor and acceptor beads. IC50s were determined using nonlinear regression fit of [inhibitor] vs. response (4 parameters).
A counter assay was also set up to rule out inhibitors of the AlphaScreen technology itself. Compound plates were incubated for 2 hours as above with buffer only. The AlphaScreen beads were added as above except biotin-AviTag-GST was substituted for the RBD. Samples were read and analyzed as above.

T1 sequence (P01116 1-169 isoform P01116-2 G12C/C51S/C80L/C118S): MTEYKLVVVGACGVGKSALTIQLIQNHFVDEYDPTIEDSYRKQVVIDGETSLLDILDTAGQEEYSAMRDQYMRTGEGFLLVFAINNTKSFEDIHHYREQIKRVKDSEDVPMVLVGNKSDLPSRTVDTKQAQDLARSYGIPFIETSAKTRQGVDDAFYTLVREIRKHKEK

| SMILES | IC50 [nM] |
| --- | --- |
| Cc1nccc(/C=C(\F)C(=O)N2CCN(c3nc(OC[C@@]45CCCN4C[C@H](F)C5)nc4c(F)c(-c5cccc6cccc(F)c56)ncc34)C[C@@H]2CC#N)n1 [Compound 33] | < 10 |
| Cc1nccc(/C=C(\F)C(=O)N2CC[C@@H](N(C)c3nc(OC[C@@]45CCCN4C[C@H](F)C5)nc4c(F)c(-c5cccc(Cl)c5C5CC5)ncc34)C2)n1 [Compound 39] | < 10 |
| N#CC[C@H]1CN(c2nc(OC[C@@]34CCCN3C[C@H](F)C4)nc3c(F)c(-c4cccc5cccc(Cl)c45)ncc23)CCN1C(=O)/C(F)=C/c1ccnc(C2CC2)n1 [Compound 6] | < 10 |
| Cc1cc(/C=C(\F)C(=O)N2CCN(c3nc(OC[C@@]45CCCN4C[C@H](F)C5)nc4c(F)c(-c5cccc6ccc(F)c(C)c56)ncc34)C[C@@H]2CC#N)nc(C)n1 [Compound 34] | < 10 |
| N#CC[C@H]1CN(c2nc(OC[C@@]34CCCN3C[C@H](F)C4)nc3c(F)c(-c4cccc5ccc(F)c(F)c45)ncc23)CCN1C(=O)/C(F)=C\c1ccnc(C2CC2)n1 [Compound 8] | 10 to 100 |
| Cc1cc(/C=C(\F)C(=O)N2CCN(c3nc(OC[C@@]45CCCN4C[C@H](F)C5)nc4c(F)c(-c5cccc(Cl)c5C5CC5)ncc34)C[C@@H]2CC#N)nc(C)n1 [Compound 32, 2-((S)-4-(7-(3-chloro-2-cyclopropylphenyl)-8-fluoro-2-(((2R,7aS)-2-fluorotetrahydro-1H-pyrrolizin-7a(5H)-yl)methoxy)pyrido[4,3-d]pyrimidin-4-yl)-1-((Z)-3-(2,6-dimethylpyrimidin-4-yl)-2-fluoroacryloyl)piperazin-2-yl)acetonitrile] | < 10 |
| COc1nc(N2CCN(C(=O)/C(F)=C/c3cc(C)nc(C)n3)[C@@H](CC#N)C2)c2cnc(-c3cc(O)cc(Cl)c3C3CC3)c(F)c2n1 [Compound 55, (S,Z)-2-(4-(7-(3-chloro-2-cyclopropyl-5-hydroxyphenyl)-8-fluoro-2-methoxypyrido[4,3-d]pyrimidin-4-yl)-1-(3-(2,6-dimethylpyrimidin-4-yl)-2-fluoroacryloyl)piperazin-2-yl)acetonitrile] | < 10 |
| N#CC[C@H]1CN(c2nc(OC[C@@]34CCCN3C[C@H](F)C4)nc3c(F)c(-c4cccc5ccc(F)c(F)c45)ncc23)CCN1C(=O)/C(F)=C/CN1CCOCC1 [Compound 24] | 100 to 500 |
| Cc1nsc(/C=C(\F)C(=O)N2CCN(c3nc(OCC45CCCN4CCC5)nc4c3CCN(c3cccc5ccc(F)c(Cl)c35)C4)C[C@@H]2CC#N)n1 [Compound 3] | < 10 |
| CCc1c(F)ccc2cccc(-c3ncc4c(N(C)[C@@H]5CCN(C(=O)/C(F)=C/c6ccnc(C)n6)C5)nc(OC[C@@]56CCCN5C[C@H](F)C6)nc4c3F)c12 [Compound 45] | < 10 |
| COc1nc(N(C)[C@@H]2CCN(C(=O)/C(F)=C/c3cc(C)nc(C)n3)C2)c2cnc(-c3cccc4ccc(F)c(F)c34)c(F)c2n1 [Compound 48] | ≥ 500 |
| Cc1cc(/C=C(\F)C(=O)N2CCN(c3nc(OC[C@@]45CCCN4C[C@H](F)C5)nc4c(F)c(-c5cccc6cccc(F)c56)ncc34)C[C@@H]2CC#N)nc(C)n1 [Compound 19] | < 10 |
| Cc1cc(/C=C(\F)C(=O)N2CC[C@@H](N(C)c3nc(N4CC(N(C)C)C4)nc4c(F)c(-c5cccc(Cl)c5C5CC5)ncc34)C2)nc(C)n1 [Compound 51] | 100 to 500 |
| Cc1nccc(/C=C(\F)C(=O)N2CCN(c3nc(OC[C@@]45CCCN4C[C@H](F)C5)nc4c(F)c(-c5cccc(Cl)c5C5CC5)ncc34)C[C@@H]2CC#N)n1 [Compound 20] | < 10 |
| Cc1cc(/C=C(\F)C(=O)N2CC[C@@H](N(C)c3nc(OC[C@@]45CCCN4C[C@H](F)C5)nc4c(F)c(-c5cccc6ccc(F)c(F)c56)ncc34)C2)nc(C)n1 [Compound 41, (Z)-1-((R)-3-((7-(7,8-difluoronaphthalen-1-yl)-8-fluoro-2-(((2R,7aS)-2-fluorotetrahydro-1H-pyrrolizin-7a(5H)-yl)methoxy)pyrido[4,3-d]pyrimidin-4-yl)(methyl)amino)pyrrolidin-1-yl)-3-(2,6-dimethylpyrimidin-4-yl)-2-fluoroprop-2-en-1-one] | < 10 |
| CN1CC[C@@H]1/C=C(\F)C(=O)N1CC[C@@H](N(C)c2nc(OC[C@@]34CCCN3C[C@H](F)C4)nc3c(F)c(-c4cccc5ccc(F)c(F)c45)ncc23)C1 [Compound 13] | 100 to 500 |

| SMILES | IC50 [nM] |
| --- | --- |
| Cc1nccc(/C=C(\F)C(=O)N2CC[C@@H](N(C)c3nc(OC[C@@]45CCCN4C[C@H](F)C5)nc4c(F)c(-c5cccc6cccc(Cl)c56)ncc34)C2)n1 [Compound 37, (Z)-1-((R)-3-((7-(8-chloronaphthalen-1-yl)-8-fluoro-2-(((2R,7aS)-2-fluorotetrahydro-1H-pyrrolizin-7a(5H)-yl)methoxy)pyrido[4,3-d]pyrimidin-4-yl)(methyl)amino)pyrrolidin-1-yl)-2-fluoro-3-(2-methylpyrimidin-4-yl)prop-2-en-1-one] | < 10 |
| C#Cc1c(F)ccc2cccc(-c3ncc4c(N(C)[C@@H]5CCN(C(=O)/C(F)=C/c6ccnc(C)n6)C5)nc(OC[C@@]56CCCN5C[C@H](F)C6)nc4c3F)c12 [Compound 42] | < 10 |
| CC(C)c1noc(/C=C(\F)C(=O)N2CCN(c3nc(OCC45CCCN4CCC5)nc4c(F)c(-c5cccc6cccc(Cl)c56)ncc34)C[C@@H]2CC#N)n1 [Compound 4] | < 10 |
| C#Cc1c(F)ccc2cccc(-c3ncc4c(N5CCN(C(=O)/C(F)=C/c6cc(C)nc(C)n6)[C@@H](CC#N)C5)nc(OC[C@@]56CCCN5C[C@H](F)C6)nc4c3F)c12 [Compound 29, 2-((S)-1-((Z)-3-(2,6-dimethylpyrimidin-4-yl)-2-fluoroacryloyl)-4-(7-(8-ethynyl-7-fluoronaphthalen-1-yl)-8-fluoro-2-(((2R,7aS)-2-fluorotetrahydro-1H-pyrrolizin-7a(5H)-yl)methoxy)pyrido[4,3-d]pyrimidin-4-yl)piperazin-2-yl)acetonitrile] | < 10 |
| N#CC[C@H]1CN(c2nc(OC[C@@]34CCCN3C[C@H](F)C4)nc3c(F)c(-c4cccc5cccc(F)c45)ncc23)CCN1C(=O)/C(F)=C/CN1[C@@H]2CC[C@H]1COC2 [Compound 28] | ≥ 500 |
| Cc1cc(/C=C(\F)C(=O)N2CC[C@@H](N(C)c3nc(OC[C@@]45CCCN4C[C@H](F)C5)nc4c(F)c(-c5cccc(Cl)c5C(F)(F)F)ncc34)C2)nc(C)n1 [Compound 47] | < 10 |
| C#Cc1c(F)ccc2cccc(-c3ncc4c(N(C)[C@@H]5CCN(C(=O)/C(F)=C/c6cc(C)nc(C)n6)C5)nc(OC[C@@]56CCCN5C[C@H](F)C6)nc4c3F)c12 [Compound 44, (Z)-3-(2,6-dimethylpyrimidin-4-yl)-1-((R)-3-((7-(8-ethynyl-7-fluoronaphthalen-1-yl)-8-fluoro-2-(((2R,7aS)-2-fluorotetrahydro-1H-pyrrolizin-7a(5H)-yl)methoxy)pyrido[4,3-d]pyrimidin-4-yl)(methyl)amino)pyrrolidin-1-yl)-2-fluoroprop-2-en-1-one] | < 10 |
| Cc1cc(/C=C(\F)C(=O)N2CCN(c3nc(OC[C@@]45CCCN4C[C@H](F)C5)nc4c(F)c(-c5cccc6ccc(F)c(Cl)c56)ncc34)C[C@@H]2CC#N)nc(C)n1 [Compound 35] | < 10 |
| Cc1cc(/C=C(\F)C(=O)N2CC[C@@H](N(C)c3nc(N4CC(N(C)C)C4)nc4c(F)c(-c5cccc6ccc(F)c(F)c56)ncc34)C2)nc(C)n1 [Compound 53] | 10 to 100 |
| Cc1cc(/C=C(\F)C(=O)N2CCN(c3ncnc4c(F)c(-c5cc(O)cc(Cl)c5C5CC5)ncc34)C[C@@H]2CC#N)nc(C)n1 [Compound 58] | < 10 |
| CN1CCC1/C=C(\F)C(=O)N1CCN(c2nc(OC[C@@]34CCCN3C[C@H](F)C4)nc3c(F)c(-c4cccc5ccc(F)c(Cl)c45)ncc23)C[C@@H]1CC#N (stereo partly drawn) [Compound 16, 2-((2S)-4-(7-(8-chloro-7-fluoronaphthalen-1-yl)-8-fluoro-2-(((2R,7aS)-2-fluorotetrahydro-1H-pyrrolizin-7a(5H)-yl)methoxy)pyrido[4,3-d]pyrimidin-4-yl)-1-((Z)-2-fluoro-3-(1-methylazetidin-2-yl)acryloyl)piperazin-2-yl)acetonitrile] | 100 to 500 |
| Cc1nccc(/C=C(\F)C(=O)N2CC(CN(C)c3nc(OC[C@@]45CCCN4C[C@H](F)C5)nc4c(F)c(-c5cccc6cccc(Cl)c56)ncc34)C2)n1 [Compound 40] | < 10 |
| Cc1nccc(/C=C(\F)C(=O)N2CCN(c3nc(OC[C@@]45CCCN4C[C@H](F)C5)nc4c(F)c(-c5cccc6c(C)c(F)ccc56)ncc34)C[C@@H]2CC#N)n1 [Compound 23] | 10 to 100 |
| Cc1cc(/C=C(\F)C(=O)N2CCN(c3nc(OC[C@@]45CCCN4C[C@H](F)C5)nc4c(F)c(-c5cccc6cccc(Cl)c56)ncc34)C[C@@H]2CC#N)nc(C)n1 [Compound 26] | < 10 |
| Cc1cc(/C=C(\F)C(=O)N2CC[C@@H](N(C)c3nc(OC[C@@H]4CCCN4C)nc4c(F)c(-c5cccc6ccc(F)c(F)c56)ncc34)C2)nc(C)n1 [Compound 52] | < 10 |
